Usually pKd stands for the negative decadic logarithm of the Kd, by convention in mol/L.

pKd: −log10 of the molar value.

These results are taken from patent US20260176245A1, “MODULATORS OF SORTILIN ACTIVITY” (Vesper Bio ApS, priority 2022, published 2026).

The experiment has as its target T1, Human (6-His) Sortilin (Homo sapiens, UniProt Q99523).
T1 construct: 6-His; purchased RnD Systems
T1 sequence (Q99523 78-755 limits assumed): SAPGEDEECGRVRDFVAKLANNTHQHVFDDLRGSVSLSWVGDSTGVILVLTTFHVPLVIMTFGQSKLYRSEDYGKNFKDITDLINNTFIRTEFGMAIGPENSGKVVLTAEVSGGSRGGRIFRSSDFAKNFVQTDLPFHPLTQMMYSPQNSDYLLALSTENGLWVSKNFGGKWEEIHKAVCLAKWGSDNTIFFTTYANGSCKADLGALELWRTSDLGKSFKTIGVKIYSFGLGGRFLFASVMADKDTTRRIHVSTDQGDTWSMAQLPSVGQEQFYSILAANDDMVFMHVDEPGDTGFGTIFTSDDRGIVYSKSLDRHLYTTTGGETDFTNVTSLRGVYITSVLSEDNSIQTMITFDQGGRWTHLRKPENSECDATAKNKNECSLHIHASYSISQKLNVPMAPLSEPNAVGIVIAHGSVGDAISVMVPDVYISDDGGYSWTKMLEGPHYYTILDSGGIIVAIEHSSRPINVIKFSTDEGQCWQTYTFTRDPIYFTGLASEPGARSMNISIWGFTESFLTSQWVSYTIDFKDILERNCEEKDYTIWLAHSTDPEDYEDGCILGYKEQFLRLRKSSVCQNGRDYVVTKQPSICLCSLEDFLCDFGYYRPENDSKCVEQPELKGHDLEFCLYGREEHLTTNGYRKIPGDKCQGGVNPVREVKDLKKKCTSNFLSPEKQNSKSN
Put plainly: Human Sortilin GCI (Grating-Coupled Interferometry) binding assay. Particulars: Creoptix WAVE-RAPID, single concentration, immobilised Human (6-His) Sortilin, 1:1 kinetic binding model; read-out: h-Sortilin GCI KD. As for the experimental part:
The exemplified compounds of the invention were tested in a Grating-Coupled Interferometry (GCI) Sortilin binding assay. The Equilibrium dissociation constant (KD) is a measure of the propensity of a complex (i.e: a ligand and receptor) to dissociate and is used to describe the affinity of an interaction between the constituents of the complex (i.e: a ligand and receptor). The skilled person will recognise that the lower the KD value, the less of the compound needed to achieve the desired effect, and as a result, the chances of undesirable off-target effects are reduced.
Compound affinity was determined by measuring the association and dissociation of compounds to Human (6-His) Sortilin (RnD Systems) using a Creoptix Wave instrument (Creoptix-Malvern Panalytical). Both Human (6-His) Sortilin immobilisation and compound evaluation were performed in HBS-N running buffer: 10 mM HEPES pH 7.4, 150 mM NaCl, 1% DMSO-Cytiva which was filtered and degassed for 15 minutes before use.
A 4PCH WAVEchip (Creoptix-Malvern Panalytical) was conditioned prior to immobilisation using 0.2×HBS-N running buffer with 0.1 M Borate pH 9.0, 1 M NaCl (Xantec Bioanalytics) injected across all flow cells. A buffer exchange was performed to 1×HBS-N running buffer and Human (6-His) Sortilin was immobilised in pH 5.0 Acetate solution (Cytiva) via amine coupling following EDC/NHS (Cytiva) surface activation and then passivated via injection of 50 mM Tris pH 7.4.
Compounds were tested in ‘WAVE-RAPID’ assays at a single concentration (usually: 1 μM, 10 µM or 100 µM) in time-response format (short pulses of increasing duration) using either ‘Weak-Binders’ (Settings: 400 μl/min flow rate, 40 Hz acquisition rate, 5 seconds association time and 20 seconds dissociation time) or ‘Intermediate Binders’ (Settings: 100 μl/min flow rate, 10 Hz acquisition rate, 25 seconds association time and 300 seconds dissociation time) settings. Which was deemed most appropriate was based upon the affinity and kinetics of the compound tested.
DMSO calibration was performed as per manufacturers requirements by injection of running buffer containing DMSO 0.5% above that of the running buffer DMSO (1.5% in that instance) every 20 cycles. All data was double referenced (blank and reference-channel subtracted) with KD values calculated by fitting to a ‘1:1 kinetic’ binding model using ‘WAVEcontrol’ software (Creoptix—Malvern Panalytical).
Turning to `CC(=O)NCC(=O)N[C@@](C)(CCC(C)(C)C)C(=O)O` [Example 1, 2-(2-acetamidoacetamido)-2,5,5-trimethylhexanoic acid], the pKd was 4.91.

Turning to `CC(=O)N[C@@H](Cc1ccccc1)C(=O)N[C@@](C)(CCC(C)(C)C)C(=O)O` [Example 4, (2S)-2-[(2S)-2-acetamido-3-phenylpropanamido]-2,5,5-trimethylhexanoic acid], the pKd is 5.70.

In the case of `CC[C@H](C)[C@H](NC(C)=O)C(=O)N[C@@](C)(CCC(C)(C)C)C(=O)O` [Example 3, (2S)-2-[(2S,3S)-2-acetamido-3-methylpentanamido]-2,5,5-trimethylhexanoic acid], the pKd was 5.89. With `CC(=O)N[C@@H](C)C(=O)N[C@@](C)(CCC(C)(C)C)C(=O)O` [Example 2, (2S)-2-[(2S)-2-acetamidopropanamido]-2,5,5-trimethylhexanoic acid], the pKd is 5.33.
